# From US20130029928A1 (priority 2010, published 2013)
# Like-named read-outs stand apart in the source and are kept apart here.
# Assay: Phase I study CXR1002-001: plasma pharmacokinetics (LC-MS/MS)
# Type: in vivo, human
# Settings: human, plasma, oral, person, plasma; for concentration at 24 h: 24 hr (Day 2); for concentration at 168 h: 168 hr (Day 8); for concentration at 336 h: 336 hr (Day 15); for concentration at 360 h: 360 hr (Day 16); for concentration at 504 h: 504 hr (Day 22); for concentration at 672 h: 672 hr (Day 29); for concentration at 696 h: 696 hr (Day 30); for concentration at 840 h: 840 hr (Day 36)
# Excerpt: PK samples, PD (fasting) samples, blood glucose, and blood triglyceride samples, were taken over a 6-week period.
# Dose limiting toxicity (DLT) will be based on the toxicity assessments over the first 3-week period of the repeat dosing schedule. PK samples (single blood sample) were taken on the following basis: • Every 6 weeks during the repeat dosing phase • If dosing is interrupted or stopped, samples will be taken at intervals according to patient convenience • PK sampling for safety evaluation may take place at any time, as clinically indicated
# Plasma samples were collected after the single 50 mg dose at the following timepoints: Pre-dose, and then 0.25, 0.5, 0.75, 1, 1.5, 2, 3, 4, 6, 24, 48, and 72 hours after administration and then once weekly at weeks 2, 3, 4, 5, and 6 (days 8, 15, 22, 29, and 36). For patients treated with the weekly repeat dose, plasma samples were collected at the following timepoints: Pre-dose and then 2, 3, 4 and 24 hours after administration for a total of 6 weeks. Thereafter a single sample was collected every 6 weeks for monitoring of exposure during long term treatment. Plasma samples were processed at site and stored at −80° C. prior to batch shipment to the analytical laboratory.
# [1] = 1000 mg, Patient 040, 1000 mg, read-out: Concentration
# [2] = 1200 mg, Patient 033, 1200 mg, read-out: Concentration
structure (smiles),measurement,setting,value
O=C(O)C(F)(F)C(F)(F)C(F)(F)C(F)(F)C(F)(F)C(F)(F)C(F)(F)F [CXR1002],concentration at 4 h,[1],190 µM
same,concentration at 24 h,[1],148 µM
same,concentration at 168 h,[1],120 µM
same,concentration at 170 h,[1],368 µM
same,concentration at 171 h,[1],343 µM
same,concentration at 172 h,"1000 mg, Patient 040, 1000 mg, 172 hr, read-out: Concentration",326 µM
same,concentration at 192 h,"1000 mg, Patient 040, 1000 mg, 192 hr (Day 9), read-out: Concentration",272 µM
same,concentration at 336 h,[1],305 µM
same,concentration at 338 h,[1],487 µM
same,concentration at 339 h,[1],427 µM
same,concentration at 340 h,[1],476 µM
same,concentration at 360 h,[1],485 µM
same,concentration at 504 h,[1],353 µM
same,concentration at 506 h,[1],502 µM
same,concentration at 507 h,"1000 mg, Patient 040, 1000 mg, 507 hr, read-out: Concentration",554 µM
same,concentration at 508 h,"1000 mg, Patient 040, 1000 mg, 508 hr, read-out: Concentration",515 µM
same,concentration at 528 h,"1000 mg, Patient 040, 1000 mg, 528 hr (Day 23), read-out: Concentration",525 µM
same,concentration at 672 h,[1],490 µM
same,concentration at 674 h,[1],558 µM
same,concentration at 675 h,[1],533 µM
same,concentration at 676 h,[1],607 µM
same,concentration at 696 h,[1],697 µM
same,concentration at 840 h,[1],574 µM
same,concentration at 842 h,[1],626 µM
same,concentration at 843 h,"1000 mg, Patient 040, 1000 mg, 843 hr, read-out: Concentration",748 µM
same,concentration at 864 h,"1000 mg, Patient 040, 1000 mg, 864 hr (Day 37), read-out: Concentration",826 µM
same,concentration at 0 h,"1200 mg, Patient 033, 1200 mg, 0 hr (pre-dose)",0 nM
same,concentration at 2 h,"1200 mg, Patient 033, 1200 mg, 2 hr, read-out: Concentration",441 µM
same,concentration at 3 h,"1200 mg, Patient 033, 1200 mg, 3 hr, read-out: Concentration",396 µM
same,concentration at 4 h,[2],374 µM
same,concentration at 24 h,[2],371 µM
same,concentration at 168 h,[2],317 µM
same,concentration at 170 h,[2],735 µM
same,concentration at 171 h,[2],657 µM
same,concentration at 172 hr,"1200 mg, Patient 033, 1200 mg, 172 hr, read-out: Concentration",637 µM
same,concentration at 192 hr,"1200 mg, Patient 033, 1200 mg, 192 hr (Day 9), read-out: Concentration",591 µM
same,concentration at 336 h,[2],637 µM
same,concentration at 338 h,[2],926 µM
same,concentration at 339 h,[2],841 µM
same,concentration at 340 h,[2],817 µM
same,concentration at 360 h,[2],915 µM
same,concentration at 504 h,[2],713 µM
same,concentration at 506 h,[2],1150 µM
same,concentration at 507 hr,"1200 mg, Patient 033, 1200 mg, 507 hr, read-out: Concentration",1060 µM
same,concentration at 508 hr,"1200 mg, Patient 033, 1200 mg, 508 hr, read-out: Concentration",1010 µM
same,concentration at 672 h,[2],1020 µM
same,concentration at 674 h,[2],1230 µM
same,concentration at 675 h,[2],1110 µM
same,concentration at 676 h,[2],1100 µM
same,concentration at 696 h,[2],1110 µM
same,concentration at 840 h,[2],1040 µM
same,concentration at 842 h,[2],1110 µM
same,concentration at 843 hr,"1200 mg, Patient 033, 1200 mg, 843 hr, read-out: Concentration",1230 µM
same,concentration at 844 hr,"1200 mg, Patient 033, 1200 mg, 844 hr, read-out: Concentration",1200 µM
same,concentration at 864 hr,"1200 mg, Patient 033, 1200 mg, 864 hr (Day 37), read-out: Concentration",1320 µM
same,concentration at 2 hr,"1200 mg, Patient 034, 1200 mg, 2 hr, read-out: Concentration",440 µM
same,concentration at 3 hr,"1200 mg, Patient 034, 1200 mg, 3 hr, read-out: Concentration",401 µM
